pIC50: −log10 of the molar value.
Assays:
CYP 3A4 = target: T1, CYP 3A4 (Homo sapiens, UniProt P08684); test: Human Liver Microsome CYP 3A4 Inhibition; type: in vitro ADME; settings: human liver microsomes, midazolam substrate; read-out: inhibited CYP3A4 microsomes, IC50
T1 construct: followed by 222.2 ml of 20 mg/mL HLM (BD Gentest); tissue BD Gentest; host or cells: human liver microsomes
Description: Determining the IC-50 for Human Liver Microsome CYP 3A4 Inhibition
Postassium Phosphate Buffer pH 7.4 (39.667 mL) is chilled in an ice bath and added to a 50 ml plastic tube. A 2 mM midazolam solution is prepared. 111.1 ul of 2 mM midazolam is added to the buffer followed by 222.2 ml of 20 mg/mL HLM (BD Gentest). The incubation mixture was gently inverted and equilibrated at 37° C. for 5 min. A stock inhibitor solution is prepared, such as in DMSO. Incubation mixture (801 ul) is added into 96-well, 1.2 mL plastic tubes. Inhibitor is added at various concentrations (e.g. 30 uM to 120 nM). The tubes are sealed and mix by inverting 5 times gently. The incubation mixture containing inhibitor (270 uL) is added by aliquot into wells of a 1 mL, 96-well block (duplicate). The block is placed into a 37° C. water bath and equilibrated for 3 min. 10 mM NADPH (30 ml) is added to all samples. After 5 minutes, the reactions are stopped by adding 300 ml of Quench Solution [0.1% TFA in CH3CN]. 1′-OH-Midazolam-d313C (2 mg/mL 30 uL) is added, the block is gently vortexed then centrifuged at 3000 rpm for 10 minutes at 4° C. 50 μL of supernatant from all samples is added by aliquot into a shorter, 96-well block. The aliquoted supernatants are pooled with other assay(s) and HPLC Grade Water (50 ul) is added to all samples. After covering and shaking by vortex gently for 2 minutes, the solutions were analyzed by LC-MS (API 3000,5% MeOH w/0.1% AcOH to 95% MeOH w/0.1% AcOH). 37 nM ketoconazole is used as a control.

[1] = test system: VEGF-stimulated HUVEC proliferation (Human Umbilical Vein Endothelial cells); test: HUVEC Proliferation Assay; type: cell-based; settings: VEGF 50 ng/mL, 72 h, CyQuant fluorescent dye, read-out: inhibited VEGF-stimulated HUVEC proliferation at a level
How it was run: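 HUVEC (passage 2–3) were seeded in DMEM+10% FBS for 22 h, then pre-incubated 2–3 h with 5-point, 5-fold compound dilutions (0.25% DMSO). They were then stimulated with VEGF (50 ng/mL final) for 72 h at 37 °C. Proliferation was read by CyQuant fluorescence (485/530 nm) after freeze-thaw, and IC50 came from a 4-parameter fit.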

CYP 2D6 = target: T2, CYP 2D6 (Homo sapiens, UniProt P10635); test: Human Liver Microsome CYP 2D6 Inhibition; type: in vitro ADME; settings: human liver microsomes, bufuralol substrate; read-out: inhibited CYP2D6 microsomes, IC50
T2 construct: followed by 555.6 ml of 20 mg/mL HLM (BD Gentest); tissue BD Gentest; host or cells: human liver microsomes
Description: Determining the IC-50 for Human Liver Microsome CYP 2D6 Inhibition
Postassium Phosphate Buffer pH 7.4 (39.333 mL) is chilled in an ice bath and added to a 50 ml plastic tube. A 3.2 mM bufuralol solution is prepared. 111.1 ul of 3.2 mM bufuralol is added to the buffer followed by 555.6 ml of 20 mg/mL HLM (BD Gentest). The incubation mixture was gently inverted and equilibrated at 37° C. for 5 min. A stock inhibitor solution is prepared, such as in DMSO. Incubation mixture (801 ul) is added into 96-well, 1.2 mL plastic tubes. Inhibitor is added at various concentrations (e.g. 30 μM to […]). The tubes are sealed and mix by inverting 5 times gently. The incubation mixture containing inhibitor (270 μL) is added by aliquot into wells of a 1 mL, 96-well block (duplicate). The block is placed into a 37° C. water bath and equilibrated for 3 minutes. 10 mM NADPH (30 ml) is added to all samples. After 5 min, the reactions are stopped by adding 300 ml of Quench Solution [0.1% TFA in CH3CN]. 1′-OH-bufuralol-d9 (750 ng/mL 30 μL) is added, the block is gently vortexed then centrifuged at 3000 rpm for 10 min at 4° C. 50 μL of supernatant from all samples is added by aliquot into a shorter, 96-well block. The aliquoted supernatants are pooled with other assay(s) and HPLC Grade Water (50 μL) is added to all samples. After covering and shaking by vortex gently for 2 minutes, the solutions were analyzed by LC-MS (API 3000, 5% MeOH w/0.1% AcOH to 95% MeOH w/0.1% AcOH). 500 nM quinidine is used as a control.

T1 sequence (P08684 whole entry): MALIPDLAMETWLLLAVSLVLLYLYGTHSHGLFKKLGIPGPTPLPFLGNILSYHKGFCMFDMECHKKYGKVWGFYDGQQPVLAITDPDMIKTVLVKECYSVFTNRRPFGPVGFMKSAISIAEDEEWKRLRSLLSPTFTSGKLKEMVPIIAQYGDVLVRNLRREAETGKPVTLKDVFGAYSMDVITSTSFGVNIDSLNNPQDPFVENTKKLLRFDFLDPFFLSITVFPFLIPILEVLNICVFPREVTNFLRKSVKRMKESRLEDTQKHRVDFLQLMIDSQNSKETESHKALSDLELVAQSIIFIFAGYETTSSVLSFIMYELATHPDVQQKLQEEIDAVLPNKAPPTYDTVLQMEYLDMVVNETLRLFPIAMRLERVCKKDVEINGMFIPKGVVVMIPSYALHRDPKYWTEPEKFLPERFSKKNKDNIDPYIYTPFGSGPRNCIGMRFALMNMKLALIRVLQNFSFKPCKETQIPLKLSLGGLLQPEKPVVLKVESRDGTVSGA
T2 sequence (P10635 whole entry): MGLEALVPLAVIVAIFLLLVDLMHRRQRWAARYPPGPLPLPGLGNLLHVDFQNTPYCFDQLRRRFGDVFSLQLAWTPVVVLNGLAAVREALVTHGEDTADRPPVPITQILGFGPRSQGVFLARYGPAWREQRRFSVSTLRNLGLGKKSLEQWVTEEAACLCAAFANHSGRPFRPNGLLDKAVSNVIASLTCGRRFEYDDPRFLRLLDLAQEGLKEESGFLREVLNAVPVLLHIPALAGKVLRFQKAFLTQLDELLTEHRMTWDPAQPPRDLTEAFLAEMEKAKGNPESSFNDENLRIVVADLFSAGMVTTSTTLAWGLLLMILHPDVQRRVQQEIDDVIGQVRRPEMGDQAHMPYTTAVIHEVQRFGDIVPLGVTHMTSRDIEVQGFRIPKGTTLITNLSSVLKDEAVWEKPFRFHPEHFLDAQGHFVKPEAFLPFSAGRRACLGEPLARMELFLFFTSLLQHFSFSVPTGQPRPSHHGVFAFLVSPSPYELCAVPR

| pIC50 (CYP 3A4) | pIC50 (CYP 2D6) | Structure (SMILES) | pIC50 [1] |
| --- | --- | --- | --- |
| < 4.70 | – | O=C(Nc1ccc(C(F)(F)C(F)(F)F)c(OC[C@@H]2CCCN2)c1)c1cccnc1NCc1ccnc2[nH]ccc12 [Example 72, N-(4-(Pentafluoroethyl)-3-(((2S)-2-pyrrolidinylmethyl)oxy)phenyl)-2-((1H-pyrrolo[2,3-b]pyridin-4-ylmethyl)amino)-3-pyridinecarboxamide] | > 6.30 |
| < 4.70 | – | CC(C)c1nc2cc(NC(=O)c3cc(F)cnc3NCc3ccnc4[nH]ccc34)ccc2s1 [Example 103, 5-fluoro-N-(2-(1-methylethyl)-1,3-benzothiazol-5-yl)-2-((1H-pyrrolo[2,3-b]pyridin-4-ylmethyl)amino)-3-pyridinecarboxamide] | > 6.30 |
| < 4.70 | – | CCc1nc2cc(NC(=O)c3cc(F)cnc3NCc3ccnc4[nH]ccc34)ccc2o1 [Example 92, N-(2-ethyl-1,3-benzoxazol-5-yl)-5-fluoro-2-((1H-pyrrolo[2,3-b]pyridin-4-ylmethyl)amino)-3-pyridinecarboxamide] | > 6.30 |
| < 4.70 | – | CN1CCC[C@@H]1COc1cc(NC(=O)c2cccnc2NCc2ccnc3[nH]ccc23)ccc1C(F)(F)F [Example 68, N-(3-((((2R)-1-methyl-2-pyrrolidinyl)methyl)oxy)-4-(trifluoromethyl)phenyl)-2-((1H-pyrrolo[2,3-b]pyridin-4-ylmethyl)amino)-3-pyridinecarboxamide] | > 6.30 |
| < 4.70 | – | O=C(Nc1ccc(Br)cc1)c1cc(F)cnc1NCc1ccnc2[nH]ccc12 [Example 89, N-(4-bromophenyl)-5-fluoro-2-((1H-pyrrolo[2,3-b]pyridin-4-ylmethyl)amino)-3-pyridinecarboxamide] | > 6.30 |
| < 4.70 | – | CC(=O)N1CC(C)(C)c2ccc(NC(=O)c3cccnc3NCc3c[nH]c4ncccc34)cc21 [Example 39, N-(1-acetyl-3,3-dimethyl-2,3-dihydro-1H-indol-6-yl)-2-[(1H-pyrrolo[2,3-b]pyridin-3-ylmethyl)amino]nicotinamide] | > 6.30 |
| < 4.70 | – | O=C(Nc1ccc(C(F)(F)F)cc1)c1cc(F)cnc1NCc1ccnc2[nH]ccc12 [Example 78, 5-fluoro-2-((1H-pyrrolo[2,3-b]pyridin-4-ylmethyl)amino)-N-(4-(trifluoromethyl)phenyl)-3-pyridinecarboxamide] | – |
| < 4.70 | – | O=C(Nc1ccc(C(F)(F)F)c(F)c1)c1cc(F)cnc1NCc1ccnc2[nH]ccc12 [Example 107, 5-fluoro-N-(3-fluoro-4-(trifluoromethyl)phenyl)-2-((1H-pyrrolo[2,3-b]pyridin-4-ylmethyl)amino)-3-pyridinecarboxamide] | > 6.30 |
| < 4.70 | – | O=C(Nc1cccc(C(F)(F)F)c1)c1cc(F)cnc1NCc1ccnc2[nH]ccc12 [Example 98, 5-fluoro-2-((1H-pyrrolo[2,3-b]pyridin-4-ylmethyl)amino)-N-(3-(trifluoromethyl)phenyl)-3-pyridinecarboxamide] | > 6.30 |
| < 4.70 | – | CC(C)Oc1ccc(NC(=O)c2cc(F)cnc2NCc2ccnc3[nH]ccc23)cc1 [Example 95, 5-fluoro-N-(4-((1-methylethyl)oxy)phenyl)-2-((1H-pyrrolo[2,3-b]pyridin-4-ylmethyl)amino)-3-pyridinecarboxamide] | – |
| < 4.70 | – | CN1CCC[C@H]1COc1cc(NC(=O)c2cccnc2NCc2ccnc3[nH]ccc23)ccc1C(F)(F)C(F)(F)F [Example 65, N-(3-((((2S)-1-methyl-2-pyrrolidinyl)methyl)oxy)-4-(pentafluoroethyl)phenyl)-2-((1H-pyrrolo[2,3-b]pyridin-4-ylmethyl)amino)-3-pyridinecarboxamide] | > 6.30 |
| – | < 4.70 | CC1(C)CCNc2cc(NC(=O)c3cccnc3NCc3c[nH]c4ncccc34)ccc21 [Example 40, N-(4,4-Dimethyl-1,2,3,4-tetrahydro-quinolin-7-yl)-2-[(1H-pyrrolo[2,3-b]pyridin-3-ylmethyl)-amino]-nicotinamide] | > 6.30 |
